Test results: PMC7247818, “Demonstration of Binding Induced Structural Plasticity in a SH2 Domain” (Frontiers in Molecular Biosciences, 2020)
Where a SMILES comes first, the peptide text is derived from it.

Tests used:
[1] = target: T1, N-SH2 domain of PI3K, L59A variant (Homo sapiens, UniProt P27986, L380A); test: Stopped-flow binding kinetics, N-SH2 L59A; conditions: 10°C
T1 construct: made in house
Procedure: (§1) N-SH2 wild-type and all the site-directed variants were expressed and purified as described previously ([Visconti et al., 2019]). All the mutants were obtained using a QuickChange Lightning Site-Directed Mutagenesis kit (Agilent technologies), accordingly to manufacturer instructions. Peptides with sequence TNSEDNpYVPMNPG mimicking wild-type Gab2 and TNSEDNpYVPANPG mimicking the M457A variant of Gab2 were purchased from GenScript Biotech Corporation.
(§2) Binding kinetics experiments were performed using a single-mixing SX-18 stopped-flow instrument (Applied Photophysics); all binding experiments were conducted in 50 mM Hepes pH 7.4 300 mM NaCl at 10°C. Excitation was at 280 nm and emission was collected using a […] cut-off glass filter. Pseudo-first order binding experiments were performed mixing a constant concentration of dansylated Gab2_448–460 and Gab2_448–460 M457A (1 μM) vs. N-SH2 wt and its mutants at concentrations ranging from […]. For each N-SH2 concentration, usually 5 individual traces were averaged and in all cases the fluorescence time courses obtained was satisfactorily fitted by using a single exponential equation.
One of the aims of this study is to depict the molecular details of the interaction between the N-SH2 domain of PI3K and Gab2. […] To monitor binding by fluorescence, a dansyl group was added at the N-terminus of the peptide. The binding reaction was monitored by stopped-flow experiments following the change in FRET signal, taking advantage of the two Trp residues on the N-SH2 domain in positions 12 and 14 as fluorescence donor and the dansyl group on Gab2_448–460 as acceptor. […]
with kon being the slope of the line and koff the intercept with the y-axis. […] Kinetic parameters extracted from data together with the calculated changes in activation and equilibrium free energies are reported in Table 1. […]

[2] = target: T2, N-SH2 domain of PI3K, T33S variant (Homo sapiens, UniProt P27986, T354S); test: Stopped-flow binding kinetics, N-SH2 T33S; conditions: 10°C
T2 construct: made in house
T2 sequence (P27986 333-428 T354S): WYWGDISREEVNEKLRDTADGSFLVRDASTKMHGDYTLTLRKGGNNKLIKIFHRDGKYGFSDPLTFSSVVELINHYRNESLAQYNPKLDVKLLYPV
Procedure: as §1, §2
(§3) One of the aims of this study is to depict the molecular details of the interaction between the N-SH2 domain of PI3K and Gab2. A powerful strategy to achieve this goal relies on perturbing the system by producing conservative site-directed variants while monitoring the effect of mutations on the association and dissociation rate constants between the interacting partners (kon and koff respectively). Thus, we designed and successfully produced 21 site-directed variants of the N-SH2 domain and challenged them vs. a peptide mimicking the region of Gab2 ranging from residue 448–460 (Gab2_448–460), containing the pY-X-X-M motif that is specifically recognized by the N-SH2 domain ([Waksman et al., 1992]; [Songyang et al., 1993]). The choise of mutations was designed in analogy to phi-value analysis methodology in protein folding studies ([Fersht and Sato, 2004]). […] To monitor binding by fluorescence, a dansyl group was added at the N-terminus of the peptide. The binding reaction was monitored by stopped-flow experiments following the change in FRET signal, taking advantage of the two Trp residues on the N-SH2 domain in positions 12 and 14 as fluorescence donor and the dansyl group on Gab2_448–460 as acceptor. The experiments were performed in pseudo-first order conditions with Gab2_448–460 at fixed concentration of 1 μM rapidly mixed vs. large excess of N-SH2 wt and its variants, ranging from 4 to 14 μM, in buffer Hepes 50 mM, NaCl 300 mM, pH 7.4, at 10°C.
(§4) with kon being the slope of the line and koff the intercept with the y-axis. Since indirect calculation of koff obtained by extrapolation is associated with high experimental error, we performed displacement experiments to directly measure koff by challenging a pre-incubated complex of dansylated Gab2_448–460 and N-SH2 domain both at the concentration of 1 μM vs. a large excess of non-dansylated Gab2_448–460 (50 μM). Kinetic parameters extracted from data together with the calculated changes in activation and equilibrium free energies are reported in Table 1. Analysis of kinetic data highlights that T48S, L51A, and L59A variations cause a detectable decrease of the affinity of the domain for Gab2_448–460 of ∼10-fold, affecting both the kon and koff. […] Since L99 residue is part of the binding pocket, this dramatic effect on the binding affinity is expected.
(§5) SH2 domains bind ligands with a phosphorylated tyrosine in their sequence. The N-SH2 domain of PI3K is known to recognize a specific consensus sequences that present a methionine in position +3 in respect to the phosphotyrosine (M457 in Gab2). […]

[3] = target: T3, N-SH2 domain of PI3K, L75A variant (Homo sapiens, UniProt P27986, L396A); test: Stopped-flow binding kinetics, N-SH2 L75A; conditions: 10°C
T3 construct: made in house
T3 sequence (P27986 333-428 L396A): as the sequence (P27986 333-428 T354S) above, with S22T, L64A counted along it
Procedure: as §1, §2, §3, §4, §5

[4] = target: T4, N-SH2 domain of PI3K, A30G variant (Homo sapiens, UniProt P27986, A351G); test: Stopped-flow binding kinetics, N-SH2 A30G; conditions: 10°C
T4 construct: made in house
T4 sequence (P27986 333-428 A351G): as the sequence (P27986 333-428 T354S) above, with A19G, S22T counted along it
Procedure: as §1, §2, §3, §4, §5

[5] = target: T5, N-SH2 domain of PI3K, T29S variant (Homo sapiens, UniProt P27986, T350S); test: Stopped-flow binding kinetics, N-SH2 T29S; conditions: 10°C
T5 construct: made in house
T5 sequence (P27986 333-428 T350S): as the sequence (P27986 333-428 T354S) above, with T18S, S22T counted along it
Procedure: as §1, §2, §3, §4, §5

[6] = target: T6, N-SH2 domain of PI3K, I60V variant (Homo sapiens, UniProt P27986, I381V); test: Stopped-flow binding kinetics, N-SH2 I60V; conditions: 10°C
T6 construct: made in house
T6 sequence (P27986 333-428 I381V): as the sequence (P27986 333-428 T354S) above, with S22T, I49V counted along it
Procedure: as §1, §2, §3, §4, §5

[7] = target: T7, N-SH2 domain of PI3K, T76S variant (Homo sapiens, UniProt P27986, T397S); test: Stopped-flow binding kinetics, N-SH2 T76S; conditions: 10°C
T7 construct: made in house
T7 sequence (P27986 333-428 T397S): as the sequence (P27986 333-428 T354S) above, with S22T, T65S counted along it
Procedure: as §1, §2, §3, §4, §5

[8] = target: T8, N-SH2 domain of PI3K, P74A variant (Homo sapiens, UniProt P27986, P395A); test: Stopped-flow binding kinetics, N-SH2 P74A; conditions: 10°C
T8 construct: made in house
T8 sequence (P27986 333-428 P395A): as the sequence (P27986 333-428 T354S) above, with S22T, P63A counted along it
Procedure: as §1, §2, §3, §4, §5

[9] = target: T9, N-SH2 domain of PI3K, L51A variant (Homo sapiens, UniProt P27986, L372A); test: Stopped-flow binding kinetics, N-SH2 L51A; conditions: 10°C
T9 construct: made in house
T9 sequence (P27986 333-428 L372A): as the sequence (P27986 333-428 T354S) above, with S22T, L40A counted along it
Procedure: as §1, §2, §3, §4, §5

[10] = target: T10, N-SH2 domain of PI3K, I62V variant (Homo sapiens, UniProt P27986, I383V); test: Stopped-flow binding kinetics, N-SH2 I62V; conditions: 10°C
T10 construct: made in house
T10 sequence (P27986 333-428 I383V): as the sequence (P27986 333-428 T354S) above, with S22T, I51V counted along it
Procedure: as §1, §2, §3, §4, §5

[11] = target: T11, N-SH2 domain of PI3K, V81A variant (Homo sapiens, UniProt P27986, V402A); test: Stopped-flow binding kinetics, N-SH2 V81A; conditions: displacement experiment, pH 7.4, 300 mM NaCl, 10°C
T11 construct: made in house
T11 sequence (P27986 333-428 V402A): as the sequence (P27986 333-428 T354S) above, with S22T, V70A counted along it
Procedure: as §1, §2, §3, §4, §5

[12] = displacement experiment, pH 7.4, 300 mM NaCl
[13] = stopped-flow FRET, 1 μM dansylated peptide, 50 mM Hepes pH 7.4, 300 mM NaCl
[14] = stopped-flow kinetics, pH 7.4, 300 mM NaCl

T1 sequence (P27986 333-428 L380A): as the sequence (P27986 333-428 T354S) above, with S22T, L48A counted along it

## CSCC[C@H](NC(=O)[C@@H]1CCCN1C(=O)[C@@H](NC(=O)[C@H](Cc1ccc(OP(=O)(O)O)cc1)NC(=O)[C@H](CC(N)=O)NC(=O)[C@H](CC(=O)O)NC(=O)[C@H](CCC(=O)O)NC(=O)[C@H](CO)NC(=O)[C@H](CC(N)=O)NC(=O)[C@@H](N)[C@@H](C)O)C(C)C)C(=O)N[C@@H](CC(N)=O)C(=O)N1CCC[C@H]1C(=O)NCC(=O)O [Gab2_448–460] (HELM PEPTIDE1{T.N.S.E.D.N.[O=C([C@H](Cc1ccc(OP(=O)(O)O)cc1)N[*:1])[*:2]].V.P.M.N.P.G}$$$$V2.0)
[1]; [12]
  koff: 21 ± 1 s⁻¹
[1]; [13]
  kon: 6.7e+06 ± 1e+06 M⁻¹ s⁻¹
[1]; [14]
  Kd: 3200 ± 200 nM
[2]; [12]
  koff: 3.6 ± 0.2 s⁻¹
[2]; [13]
  kon: 2.26e+07 ± 2.4e+06 M⁻¹ s⁻¹
[2]; [14]
  Kd: 200 ± 100 nM
[3]; [12]
  koff: 6.1 ± 0.3 s⁻¹
[3]; [13]
  kon: 8.1e+06 ± 1.1e+06 M⁻¹ s⁻¹
[3]; [14]
  Kd: 800 ± 100 nM
[4]; [12]
  koff: 3.7 ± 0.2 s⁻¹
[4]; [13]
  kon: 2.92e+07 ± 2e+06 M⁻¹ s⁻¹
[4]; [14]
  Kd: 100 ± 100 nM
[5]; [12]
  koff: 4.3 ± 0.2 s⁻¹
[5]; [13]
  kon: 1.75e+07 ± 500000 M⁻¹ s⁻¹
[5]; [14]
  Kd: 300 ± 100 nM
[6]; [12]
  koff: 6.9 ± 0.3 s⁻¹
[6]; [13]
  kon: 9.1e+06 ± 1.1e+06 M⁻¹ s⁻¹
[6]; [14]
  Kd: 800 ± 100 nM
[7]; [12]
  koff: 5.3 ± 0.3 s⁻¹
[7]; [13]
  kon: 1.69e+07 ± 1.3e+06 M⁻¹ s⁻¹
[7]; [14]
  Kd: 300 ± 100 nM
[8]; [12]
  koff: 27 ± 1 s⁻¹
[8]; [13]
  kon: 4.87e+07 ± 1.5e+06 M⁻¹ s⁻¹
[8]; [14]
  Kd: 600 ± 100 nM
[9]; [12]
  koff: 18 ± 1 s⁻¹
[9]; [13]
  kon: 5.6e+06 ± 1.1e+06 M⁻¹ s⁻¹
[9]; [14]
  Kd: 3200 ± 200 nM
[10]; [12]
  koff: 4.5 ± 0.2 s⁻¹
[10]; [13]
  kon: 1.55e+07 ± 1.4e+06 M⁻¹ s⁻¹
[10]; [14]
  Kd: 300 ± 100 nM
[11]
  koff: 4.5 ± 0.2 s⁻¹
